Measured values: patent EP2525820B1, “NOVEL CLASS OF MONOSPECIFIC AND BISPECIFIC HUMANIZED ANTIBODIES THAT TARGET THE INSULIN-LIKE GROWTH FACTOR TYPE I RECEPTOR (IGF-1R)” (Immunomedics, Inc., priority 2010, dated 2011)

How the values were obtained:
[1] = system: CAG human myeloma cells; type: in vivo, SCID mice
Protocol: CAG human myeloma cells are grown in cell culture to a density that allows 1 million cells to be harvested for transplantation to 6-8-week old female SCID mice obtained from Charles River Laboratories (Frederick, MD). The mice are immunosuppressed by pretreatment with fludarabine and cyclophosphamide 3 days before intravenous injection of 5-10 x […] myeloma cells as described in Stein et al. (Blood. 2004; 104:3705-11). Mice are examined daily for signs of distress or hind-leg paralysis, and weighed weekly. Paralysis of the hind legs or a weight loss of ≥ 20% is used as the survival endpoint, when the animals are euthanized. Groups of 8-10 mice are used. […] The effects of combining bortezomib with hR1 are evaluated in the same myeloma model. Treatments are given as two i.p. doses/week for 3 weeks, initiated on day 5 after injection of the myeloma cells. […] Treatment with hR1 at 0.6 mg/mouse repeated twice weekly for 3 weeks increases the median survival time to 60 days. When bortezomib and hR1 treatments are combined, the median survival time is increased further to 79 days for 0.5 mg bortezomib + 0.6 mg hR1, which is significant (P=0.04).

[2] = target: DDD; conditions: DDD of RII / RIIα dimers; read-out: binding constant for DDD; cited from earlier work
Sequence of DDD (P13861 2-45 limits assumed): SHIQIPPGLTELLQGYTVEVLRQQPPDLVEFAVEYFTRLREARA

[3] = target: RII isoform of PKA (Homo sapiens, UniProt P13861); conditions: cited from earlier work
Sequence of RII isoform of PKA (P13861 whole entry, canonical isoform): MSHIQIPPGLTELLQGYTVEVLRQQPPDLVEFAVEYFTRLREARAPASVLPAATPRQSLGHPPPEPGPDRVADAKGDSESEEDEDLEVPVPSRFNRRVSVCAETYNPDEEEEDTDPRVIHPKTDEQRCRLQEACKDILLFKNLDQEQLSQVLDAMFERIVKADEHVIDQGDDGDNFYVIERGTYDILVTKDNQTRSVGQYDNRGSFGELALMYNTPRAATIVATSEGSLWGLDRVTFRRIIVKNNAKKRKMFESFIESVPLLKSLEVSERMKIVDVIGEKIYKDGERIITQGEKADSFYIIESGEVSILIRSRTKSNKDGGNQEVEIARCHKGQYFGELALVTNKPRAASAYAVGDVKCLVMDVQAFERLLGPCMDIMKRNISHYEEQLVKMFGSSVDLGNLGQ

Q: What does the source list for `CC(C)C[C@H](NC(=O)[C@H](Cc1ccccc1)NC(=O)c1cnccn1)B(O)O` [bortezomib]?
A: increase of median survival ([1]; 0.5 mg/kg, versus untreated control mice): 21.2%; tolerability, body-weight loss ([1]; mouse, in vivo, 0.5 mg/kg): well tolerated, with no body-weight loss; median survival ([1]; two i.p. doses/week for 3 weeks from day 5, bortezomib 0.5 mg/kg, hR1 0.6 mg/mouse, untreated control 33 days): 40 days

Q: Which Kd [2] does the source give for “QIEYLAKQIVDNAIQQA (SEQ ID NO: 17) [AKAP-IS]” here?
A: 400 pM

Q: Which “selectivity for the RII isoform of PKA compared with the RI isoform” value [3] does the source give for “QIEYVAKQIVDYAIHQA (SEQ ID NO:39) [SuperAKAP-IS]” here?
A: five order of magnitude higher selectivity
